# Read-outs that look alike come from different tables or passages of the source.
# How the values were obtained:
# [1] = tested on: human neutrophils; test: Human neutrophil oxidative activity, luminol-enhanced chemiluminescence; assay type: cell-based; conditions: for EC50: Homo sapiens, Neutrophil, read-out: PMN oxid (-log EC50) (converted); for EC50 / PMN oxid (-log EC50): human neutrophil experiment w/o Rolipram; for PMN oxid + roli (-log EC50): human neutrophil experiment w/Rolipram
# Procedure, shortened: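 Purified human neutrophils (5–10×10^5/ml) pre-incubated 30 min at 37 °C with the A2A agonist, ± rolipram and ± TNF-α (1 U/ml), then stimulated with fMLP (1 μM final). Peak luminol-enhanced chemiluminescence expressed as percent of no-agonist control. EC50 from three donors.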
# [2] = tested on: liver ischemia/reperfusion injury; test: Liver ischemia/reperfusion injury, serum GPT; assay type: in vivo, Mice; conditions: administered 6 hours prior to I/R injury; serum GPT 24 hours later; vs. a control compound and ATL146e; FIG. 17
# Protocol: Mice were anesthetized by intraperitoneal injection of ketamine 100 mg/kg and xylazine 10 mg/kg. Glycopyrrolate (Robinul-V™) 0.05 mg/kg was delivered subcutaneously before the operation. The ambient temperature was controlled in the range of 24° C. to 26° C. Mice were placed on a 37° C. heat pad with their core temperature monitored by a TH-8 Thermalert™ Monitoring Thermometer (Physitemp) and maintained at 36-37° C. by a TCAT-1A Temperature Control and Alarm Unit (Physitemp) during the entire procedure. After midline laparotomy, a microaneurysm clip was applied to the hepatic triad above the bifurcation to clamp the flow of the hepatic artery, portal vein, and bile duct. […]
# Serum GPT (ALT) levels were measured using a Transaminase kit (505, Sigma). Briefly, 20 μL serum sample was mixed with 100 (L pre-heated Alanine-α-KG substrate and incubated in a 37° C. water bath for 30 minutes. Then we added 100 (L Sigma Color Reagent to the reaction and left it at room temperature for 20 minutes. We stopped the reaction with 1.0 ml 0.4N sodium hydroxide solution. Absorbance of each sample at 505 nm was measured and converted into SF unit/ml.
# The test compounds were administered 6 hours prior to I/R injury. Tissue protection is measured by amount of Serum GPT present in the in a serum sample 24 hours later, with smaller GPT concentrations indicating better liver function.
# [3] = biological target: T1, human A1 AR (Homo sapiens, UniProt P30542); test: Radioligand competition binding (125I-ABA) to human A1 AR in CHO K1 cell membranes; conditions: for Ki: Ki from competition binding, 125I-ABA, CHO K1 cell membranes; for A1/A2A: selectivity ratio A1 over A2A
# T1 sequence (P30542 1-326): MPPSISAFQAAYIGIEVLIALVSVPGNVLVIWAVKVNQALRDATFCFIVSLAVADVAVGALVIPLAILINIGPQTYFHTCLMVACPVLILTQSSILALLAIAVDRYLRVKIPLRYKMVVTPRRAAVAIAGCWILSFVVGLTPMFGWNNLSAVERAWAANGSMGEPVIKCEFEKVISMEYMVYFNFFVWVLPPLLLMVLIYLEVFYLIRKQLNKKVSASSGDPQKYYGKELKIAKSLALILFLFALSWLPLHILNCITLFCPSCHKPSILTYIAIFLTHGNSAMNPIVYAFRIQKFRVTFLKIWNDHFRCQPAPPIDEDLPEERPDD
# [4] = biological target: T2, A3 AR (Homo sapiens, UniProt P0DMS8); test: Radioligand competition binding (125I-ABA) to human A3 AR in HEK 293 cell membranes; conditions: for Ki: Ki from competition binding, 125I-ABA, HEK 293 cell membranes; for A3/A2A: selectivity ratio A3 over A2A
# T2 sequence (P0DMS8 1-318): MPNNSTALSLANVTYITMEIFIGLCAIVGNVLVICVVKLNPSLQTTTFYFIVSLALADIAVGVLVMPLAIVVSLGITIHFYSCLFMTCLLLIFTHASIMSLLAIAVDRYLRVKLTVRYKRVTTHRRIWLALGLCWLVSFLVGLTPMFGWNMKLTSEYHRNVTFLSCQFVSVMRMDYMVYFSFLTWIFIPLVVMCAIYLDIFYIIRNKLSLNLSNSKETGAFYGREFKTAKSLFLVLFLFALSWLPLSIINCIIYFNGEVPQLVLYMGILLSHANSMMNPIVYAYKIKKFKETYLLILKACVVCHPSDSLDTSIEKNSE
# [5] = biological target: recombinant human A2A receptors (Homo sapiens, UniProt P29274); test: Radioligand competition binding to recombinant human A2A receptors in Sf9 cell membranes; conditions: Ki from competition binding, Sf9 cell membranes
# Chain of recombinant human A2A receptors (P29274 whole entry): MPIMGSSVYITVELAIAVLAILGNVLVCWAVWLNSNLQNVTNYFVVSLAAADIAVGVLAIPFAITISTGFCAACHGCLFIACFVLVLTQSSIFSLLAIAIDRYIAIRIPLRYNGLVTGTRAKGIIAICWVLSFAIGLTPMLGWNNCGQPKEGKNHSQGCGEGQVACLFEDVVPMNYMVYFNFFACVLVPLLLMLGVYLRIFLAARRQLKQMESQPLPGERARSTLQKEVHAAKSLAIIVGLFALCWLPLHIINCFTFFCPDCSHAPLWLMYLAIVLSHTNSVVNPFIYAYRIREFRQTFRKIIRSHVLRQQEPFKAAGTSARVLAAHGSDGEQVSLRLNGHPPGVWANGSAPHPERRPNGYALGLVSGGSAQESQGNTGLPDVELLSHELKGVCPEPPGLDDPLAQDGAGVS
SMILES,EC50 [1] [nM],PMN oxid + roli (-log EC50) [1],Ki ([3]; A1 ± SEM) [nM],A1/A2A [3],Ki ([4]; A3 ± SEM) [nM],A3/A2A [4],Ki ([5]; A2A ± SEM) [nM],PMN oxid (-log EC50) [1],Ki ([3]; read-out: A1 ± SEM) [nM],Ki ([4]; read-out: A3 ± SEM) [nM],Ki ([5]; read-out: A2A ± SEM) [nM],duration of action for liver tissue protection (Serum GPT) [2]
"CCNC(=O)[C@H]1O[C@@H](n2cnc3c(N)nc(C#CCC4CCN(C(=O)OCC(C)C)CC4)nc32)C(O)C1O (stereo in doubt) [JR-4011, 4-{3-[6-Amino-9-(5-ethylcarbamoyl-3,4-dihydroxytetrahydrofuran-2-yl)-9H-purin-2-yl]-prop-2-ynyl}-piperidine-1-carboxylic acid isobutyl ester]",3.47,,,0.0,71.7,117.5,0.61 ± 0.06,,,,,
"CCNC(=O)[C@H]1O[C@@H](n2cnc3c(N)nc(C#CCC4CCC(CC)CC4)nc32)C(O)C1O (stereo in doubt) [JR-3087, 5-{6-Amino-2-[3-(4-ethyl-cyclohexyl)-prop-1-ynyl]-purin-9-yl}-3,4-dihydroxytetrahydrofuran-2-carboxylic acid ethylamide]",46.8,8.51,20.3 ± 4.5,9.2,17.8 ± 5.5,8.1,2.2 ± 0.2,,,,,
"CCNC(=O)[C@H]1O[C@@H](n2cnc3c(N)nc(C#CCC4CCC(C(=O)OCCN)CC4)nc32)C(O)C1O (stereo in doubt) [JR-3033, 4-{3-[6-Amino-9-(5-ethylcarbamoyl-3,4-dihydroxy-tetrahydrofuran-2-yl)-9H-purin-2-yl]-prop-2-ynyl}-cyclohexanecarboxylic acid 2-amino-ethyl ester]",49,8.67,15.1 ± 3.9,9.7,26 ± 14,16.7,1.6 ± 0.02,,,,,
"CCNC(=O)[C@H]1O[C@@H](n2cnc3c(N)nc(C#CCN4CCN(c5ncccn5)CC4)nc32)C(O)C1O (stereo in doubt) [JR-3283, 5-{6-Amino-2-[3-(4-pyrimidin-2-yl-piperazin-1-yl)-prop-1-ynyl]-purin-9-yl}-3,4-dihydroxytetrahydrofuran-2-carboxylic acid ethylamide]",5.75,,15.3 ± 0.4,4.6,66.2,19.0,2 ± 0.25,,,,,
"CCNC(=O)[C@H]1O[C@@H](n2cnc3c(N)nc(C#CCC4CCN(C(=O)OC)CC4)nc32)C(O)C1O (stereo in doubt) [JR-4007, 4-{3-[6-Amino-9-(5-ethylcarbamoyl-3,4-dihydroxytetrahydrofuran-2-yl)-9H-purin-2-yl]-prop-2-ynyl}-piperidine-1-carboxylic acid methyl ester]",1.7,,34.6 ± 1.4,35.7,65.2,67.2,0.97 ± 0.33,,,,,

# Second part, led by results:
EC50 [1] [nM],PMN oxid + roli (-log EC50) [1],Ki ([3]; A1 ± SEM) [nM],A1/A2A [3],Ki ([4]; A3 ± SEM) [nM],A3/A2A [4],Ki ([5]; A2A ± SEM) [nM],PMN oxid (-log EC50) [1],Ki ([3]; read-out: A1 ± SEM) [nM],Ki ([4]; read-out: A3 ± SEM) [nM],Ki ([5]; read-out: A2A ± SEM) [nM],SMILES,duration of action for liver tissue protection (Serum GPT) [2]
0.339,10.15,4.8 ± 0.3,5.2,0.7 ± 0.02,0.8,0.92 ± 0.2,,,,,"CCNC(=O)[C@H]1O[C@@H](n2cnc3c(N)nc(C#C[C@]4(O)CCC[C@@H](C)C4)nc32)C(O)C1O (stereo in doubt) [JR-3223, 5-[6-Amino-2-(1-hydroxy-3-methylcyclohexylethynyl)purin-9-yl]-3,4-dihydroxytetrahydrofuran-2-carboxylic acid ethylamide]",longer duration of action
,9.03,8.7 ± 0.07,7.1,6.7 ± 0.3,5.5,1.2 ± 0.35,7.53,,,,"CCNC(=O)[C@H]1O[C@@H](n2cnc3c(N)nc(C#CC4(O)CCCCC4C)nc32)C(O)C1O (single isomer, unassigned) [JR-3177A, 5-[6-Amino-2-(1-hydroxy-2-methyl-cyclohexylethynyl)-purin-9-yl]-3,4-dihydroxytetrahydrofuran-2-carboxylic acid ethylamide]",
,8.08,,4.2,,9.3,,7.22,14.2 ± 1.08,31.6 ± 26.5,3.4 ± 0.3,CCNC(=O)C1OC(n2cnc3c(N)nc(C#CC4(N)CCCCC4)nc32)C(O)C1O (centres unmarked) [JR-3205],
,7.65,29.6 ± 4.8,2.5,31.1 ± 7.2,2.6,11.9 ± 1.3,6.42,,,,"CCNC(=O)[C@H]1O[C@@H](n2cnc3c(N)nc(C#CC4(O)CCCCNC4=O)nc32)C(O)C1O (single isomer, unassigned) [JR-3243A, 5-[6-Amino-2-(3-hydroxy-2-oxo-azepan-3-ylethynyl)purin-9-yl]-3,4-dihydroxytetrahydrofuran-2-carboxylic acid ethylamide]",
,8.2,121 ± 44,30.3,212 ± 95,53.0,4 ± 0.2,6.83,,,,"CCNC(=O)[C@H]1O[C@@H](n2cnc3c(N)nc(C#CCC4CCC(C)(C(=O)OC)CC4)nc32)C(O)C1O (single isomer, unassigned) [JR-3067B, 4-{3-[6-Amino-9-(5-ethylcarbamoyl-3,4-dihydroxytetrahydrofuran-2-yl)-9H-purin-2-yl]-prop-2-ynyl}-1-methyl-cyclohexanecarboxylic acid methyl ester]",
7410,7.14,536,21.4,50,2.0,25.1 ± 1.3,,,,,"CCNC(=O)[C@H]1O[C@@H](n2cnc3c(N)nc(C#CC4(O)CCCCC4C(C)(C)C)nc32)C(O)C1O (stereo in doubt) [JR-3227, 5-[6-Amino-2-(2-tert-butyl-1-hydroxycyclohexylethynyl)purin-9-yl]-3,4-dihydroxytetrahydrofuran-2-carboxylic acid ethylamide]",
